{"source": "patent US8715747B2", "about": "“Biocomposition stimulant of the immune system, anti-tumor and anti-HIV” (Pharmabrand S.A., priority 2007, dated 2014)", "key": {"[1]": {"test_system": "prostate cancer with node metastases and invasion of the bladder floor", "experiment": "Clinical observation: patient with prostate cancer, tumor markers PSA and CEA", "format": "in vivo, human", "design": "PSA: unit not given beside the values", "source_text": "The patient is an individual diagnosed with prostate cancer with node metastases and invasion of the bladder floor. […] In March 2003, PSA level was 1096, the carcinoembryonic antigen was 6.85.\nCarcinoembryonic antigen is a substance that usually only appears during fetal development and reappears again in adults who develop certain types of cancer: colon, rectum, stomach, esophagus, liver, pancreas, bladder, and breast (female mammary gland), lung and prostate as well.\nThe test of carcinoembryonic antigen (CEA) plays an important role in monitoring patient outcomes with cancer and metastasis. Even though it can not be considered a final marker, it serves as a useful guide. Its constant increase means that therapy has not achieved positive results. A decrease indicates a trend towards regression of the lesion.\nThe patient starts with a daily dose of 250 mg of Flutamide (fluxus) until reaching a PSA of 252. After 4 months, PSA reaches 525. From this point, the patient receives a double dose of Flutamide until registering a PSA of 256. CEA level was 5.84. After three months PSA rises again to 580. The tumor becomes resistant to hormone therapy. […] At first, PSA level was 600 and CEA level was 8.86. […] CEA level has dropped to 6.51. PSA level has changed to 700, a much better value if compared to the resistance to flutamide.\nThe patient underwent surgery to improve the diameter of the urethra and to remove the catheter that started to produce frequent bleeding. After the surgery, the patient suffered a massive infection due to Escherichia coli bacteria. They received anti-bacterial treatment with good results. PSA reached 698. After the surgery, the administration of the composition of the invention re-started, and after 2 months, PSA dropped to 88 and CEA to 5.04. During the following 2 months, PSA level reached 10 ng/ml level. After 70 days, PSA registers 4 ng/ml levels, which are considered normal values. CEA level was 3.97. Currently, the patient has returned to work (August, 2005). They had also had dialysis due to complications during the surgery. The patient has been taking the composition in daily basis during the next two years, maintaining a good health condition. Despite the three dialysis sessions per week that they are receiving, […] general state is good; they manage to do everything by themself and exercises every morning; PSA is 15 but CEA has always been 2.5 ng/ml. During these two years (March, 2007), they have kept a strict diet and has not received any other type of anti-tumor therapy."}, "S. aureus": {"test_system": "S. aureus", "experiment": "Microbiological test for bactericidal properties (inhibition halo), S. aureus", "format": "cell-based, Staphylococcus aureus", "settings": "Gentamicin 2 μg/ml", "source_text": "Microbiological Tests to Determine Bactericidal Properties of the Aqueous and Ethanolic Extracts of the Composition of the Invention:\nThe inhibitory halo of FT001 registered a diameter of approximately 12 mm."}}}
{"compound": "CC(C)C(=O)Nc1ccc([N+](=O)[O-])c(C(F)(F)F)c1", "note": "[Flutamide]", "values": [{"measurement": "PSA", "setting": "[1]; 250 mg Flutamide daily, after 4 months", "result": 525}, {"measurement": "PSA", "setting": "[1]; daily dose of 250 mg Flutamide, start PSA 1096", "result": 252}, {"measurement": "CEA level", "setting": "[1]; double dose of Flutamide", "result": 5.84}, {"measurement": "PSA", "setting": "[1]; double dose of Flutamide", "result": 256}, {"measurement": "PSA", "setting": "[1]; double dose of Flutamide, after three months, PSA rises again", "result": 580}]}
{"compound": "Gentamicin", "values": [{"measurement": "halo of the lower standard", "setting": "S. aureus", "result": 12.2, "unit": "mm"}]}
